Read-outs that look alike come from different tables or passages of the source.

In assay [1] the test system is PRMT5 (symmetric dimethylation of arginine (SDMA) in MCF-7 cells). The experiment in a line: PRMT5 Cell Target Engagement (TE) Assay (SDMA, high content imaging). The class given is cell-based. The conditions noted are these: Homo sapiens, MCF7, 72 h, treated for 3 days, top compound concentration of 10000 nM. An excerpt:
PRMT5 Cell Target Engagement (TE) Assay
The PRMT5 TE assay is a biomarker assay for identifying compounds that inhibit symmetric dimethylation of arginine (SDMA) of PRMT5 substrates. This assay detects symmetrically dimethylated nuclear proteins using high content imaging technology. Detection of the expression of symmetrically dimethylated nucleo proteins is through a mixture of primary rabbit monoclonal antibodies to SDMA (CST 13222), which in turn recognized by an Alexafluor 488 dye-conjugated anti-rabbit IgG secondary antibody. The IN Cell Analyzer 2200 measures nuclear Alexafluor 488 fluorescent dye intensity that is directly related to the level of expression of symmetrically dimethylated nuclear proteins at the single cell level. Nuclear AF488 dye intensities are compared to the mean value for DMSO treated cells […] to report percent of inhibition for each compound-treated well.
In this assay, the cell potency (EC50) of each compound was determined from a ten point (1:3 serial dilution; top compound concentration of 10000 nM) titration curve using the following outlined procedure. Each well of a BD falcon collagen coated black/clear bottom 384-well plate was seeded with 4000 MCF-7 cells and allowed to attach for 5 hours. Media from cell plate was removed at 0.5 mm above the bottom of the plate and replaced with 30 μL of fresh media containing 1.2× compounds in 0.1% DMSO. Cells were treated for 3 days in 37° C. CO2 incubator. On day 3, cells were fixed with Cytofix, permeabilized with 0.4% Triton-X-100/Cytofix, and washed with D-PBS without Ca/Mg. Cells were blocked with Licor Odessey blocking reagent for one hour at room temperature, followed by incubation with anti-SDMA (1:1000) antibody at 4° C. overnight. 1° antibody was removed, followed by three washings with DPBS without Ca/Mg and 0.05% Tween20. Hoechst (5 μg/ml), Cell Mask deep stain (1:2000) and Alexa488-conjugated goat anti-rabbit IgG (2 μg/mL) was added for 1 hour at room temperature. A final washing step (three washes) was performed before sealing plate for imaging on In Cell Analyzer 2200. Images from analyzer were uploaded to Columbus (at WP) for image analysis. IC50 values were determined by 4 parameters robust fit of percent fluorescence units vs. (Log10) compound concentrations.

The target of assay [2] is Full-length PRMT5 enzyme co-expressed with His6-MEP50 (Homo sapiens (Human), UniProt O14744). The experiment in a line: PRMT5 Biochemical Assay (Transcreener EPIGEN methyltransferase, fluorescence polarisation). Particulars: histone H4 derived peptide substrate 1 μM, 1 μM S-Adenosyl methionine, 4 hours at 37 degree Celsius. Here is the method: Compounds of the Invention may be Tested for In Vitro Activity in the Following Assay:
A histone H4 derived peptide is used as substrate (amino acid sequence: […]NH2). Full-length PRMT5 enzyme (NCBI Reference sequence NP_006100.2) was co-expressed with His6-MEP50 in insect cells and purified via Nickel immobilized metal affinity and gel filtration chromatography (“the enzyme”).
The 6 μL reactions are run in Greiner brand black 384-well low volume assay plates. All reactions contained assay buffer (phosphate buffered saline, 0.01% (v/v) Tween-20, 0.01% (w/v) albumin from chicken egg white, 1 mM Dithiothreitol, 1 μM peptide substrate, 1 μM S-Adenosyl methionine, and 15 ng/reaction enzyme, with the enzyme being omitted from negative control reactions. Compounds were added in a volume of 100 nL from dilution series prepared in DMSO, positive and negative control reactions receiving the same volume DMSO without compound. The plates were sealed with adhesive seals and incubated for 4 hours at 37 degree Celsius. Reaction progress was measured using the Transcreener™ EPIGEN methyltransferase assay (BellBrook Labs, Madison, Wis.) as recommended by the manufacturer. To each reaction 2 μL detection mix were added, containing coupling enzymes, fluorescence polarisation tracer, and AMP antibody. Plates were incubated for 90 minutes before being read on a Perkin Elmer EnVision™ plate reader in fluorescence polarisation mode. IC50 values were obtained from the raw readings by calculating percent inhibition (% I) for each reaction relative to controls on the same plate (% I=(I−CN)/(CP−CN) where CN/CP are the averages of the negative/positive reactions, respectively), then fitting the % I data vs. compound concentration [I] to % I=(A+((B−A)/(1+((C/[I])^D)))) where A is the lower asymptote, B is the upper asymptote, C is the IC50 value, and D is the slope.

The test system of assay [3] is PRMT5 (symmetrical dimethylation of arginine in TE11 cells). Kind of assay: PRMT5 Biomarker Assay (symmetrical dimethylation of arginine, Di-Methyl Histone H4 Arginine 3). The class given is cell-based. The conditions noted are these: Homo sapiens, TE-11, 72 hours incubation, anti-Di-Methyl Histone H4 Arginine 3 antibody. Here is the method: Compounds of the Invention may be Tested for Potency to Inhibit Symmetrical Dimethylation of Arginine in the Following Assay:
The cell line TE11 was seeded at a density of 6,000 cells per well in 96 well optical quality tissue culture plates in DME medium and 10% foetal bovine serum, and allowed to adhere for 5 hours under standard culture conditions (37 degree Celsius, 5% CO2). Compound dilutions prepared in DMSO were added to the medium, with negative control wells reserved for treatment with DMSO only and maximum inhibition controls receiving a potent PRMT5 inhibitor compound at 1 μM concentration. After incubation for 72 hours, the cells were fixed with 3.7% formaldehyde in PBS for 30 minutes at room temperature, washed with phosphate buffer saline and blocked with Odyssey blocking buffer (LI-COR, Lincoln, Nebr.). Rabbit anti-Di-Methyl Histone H4 Arginine 3 specific antibody (Epigentek) in Odyssey blocking buffer was added and incubated for 14 hours at 4 degree Celsius. After washing, anti-rabbit secondary antibody labelled with Alexa647 dye (LifeTechnologies) and Hoechst 33342 (1 μg/mL, SigmaAldrich) were added for 1 hour incubation. Plates were washed and read on a PerkinElmer Envision 2103 in fluorescence intensity scanning mode (24 scans across the well area). The plates were imaged on a PerkinElmer Phenix high content imaging platform. Using a Columbus image analysis pipeline, individual nuclei were located by Hoechst 33342 stain and the methylation level was calculated from the Alexa647-related intensity in the same area. IC50 values were obtained from the mean Alexa647-related intensity per cell by calculating percent inhibition (% I) for each well relative to controls on the same plate (% I=(I−CN)/(CP−CN) where CN/CP are the averages of the negative/maximum inhibition controls, respectively), then fitting the % I data vs. compound concentration [I] to % I=(A+((B−A)/(1+((C/[I])^D)))) where A is the lower asymptote, B is the upper asymptote, C is the IC50 value, and D is the slope.

Assay [4] deals with Full-length (FL)-PRMT5-MEP50 enzyme complex (Homo sapiens (Human), UniProt O14744). Kind of assay: PRMT5-MEP50 Enzyme Methylation Assay (SAMDI). The assay is classed as biochemical. Particulars: 0.5 nM PRMT5-MEP50, 75 nM biotinylated H4R3(Me1) peptide, 15 μM SAM, 150 minutes at 37° C. Here is the method:
PRMT5-MEP50 Enzyme Methylation Assay
PRMT5/MEP50 biochemical assay is a direct measurement of the methylation activity of the enzyme complex on a short peptide substrate derived from the N-terminus of H4 histone. Methylation experiment is performed with recombinant protein. The assessment of inhibitory effect (IC50) of small molecules is measured by the effectiveness of the compounds to inhibit this reaction.
In this assay, the potency (IC50) of each compound was determined from a twenty-point (1:2 serial dilution; top compound concentration of 100000 nM) titration curve using the following outlined procedure. To each well of a white ProxiPlus 384 well-plate, 100 nL of compound (1% DMSO in final assay volume of 10 μL) was dispensed, followed by the addition of 8 μL of 1× assay buffer (50 mM Bicine pH 8.0, 1 mM DTT, 0.004% Tween20, 0.01% BSA) containing 0.5 nM of Full-length (FL)-PRMT5-MEP50 enzyme complex (recombinant proteins from baculovirus-transfected Sf21 cells: FL-PRMT5; MW=[…] and FL-MEP50; MW=38614). Plates were sealed and placed in a 37° C. humidified chamber for 30 minutes pre-incubation with compounds. Subsequently, each reaction was initiated by the addition of 2 μL 1× assay buffer containing 75 nM biotinylated H4R3(Me1) peptide, and 15 μM S-(5′-Adenosyl)-L-Methionine Chloride (SAM). The final reaction in each well of 10 μL consists of 0.5 nM PRMT5-MEP50,75 nM biotinylated-peptide, and 15 μM SAM. Methylation reactions were allowed to proceed for 150 minutes in a sealed plate at 37° C. Reactions were immediately quenched by the addition of 1 μL of 10% formic acid. Plates were then frozen and shipped to SAMDI™ Tech Inc. to determine the percent conversion from […]. IC50 values were determined by 7 parameters biphasic fit model plotting the percent product conversion vs. (Log10) compound concentrations.

Where [5] appears, read: Enzyme Methylation Assay (EC50—1, nM), first EC50 of biphasic fit.
Where [6] appears, read: second EC50 of biphasic fit, read-out: Enzyme Methylation Assay (EC50—2).

Chain of Full-length (FL)-PRMT5-MEP50 enzyme complex (O14744 whole entry): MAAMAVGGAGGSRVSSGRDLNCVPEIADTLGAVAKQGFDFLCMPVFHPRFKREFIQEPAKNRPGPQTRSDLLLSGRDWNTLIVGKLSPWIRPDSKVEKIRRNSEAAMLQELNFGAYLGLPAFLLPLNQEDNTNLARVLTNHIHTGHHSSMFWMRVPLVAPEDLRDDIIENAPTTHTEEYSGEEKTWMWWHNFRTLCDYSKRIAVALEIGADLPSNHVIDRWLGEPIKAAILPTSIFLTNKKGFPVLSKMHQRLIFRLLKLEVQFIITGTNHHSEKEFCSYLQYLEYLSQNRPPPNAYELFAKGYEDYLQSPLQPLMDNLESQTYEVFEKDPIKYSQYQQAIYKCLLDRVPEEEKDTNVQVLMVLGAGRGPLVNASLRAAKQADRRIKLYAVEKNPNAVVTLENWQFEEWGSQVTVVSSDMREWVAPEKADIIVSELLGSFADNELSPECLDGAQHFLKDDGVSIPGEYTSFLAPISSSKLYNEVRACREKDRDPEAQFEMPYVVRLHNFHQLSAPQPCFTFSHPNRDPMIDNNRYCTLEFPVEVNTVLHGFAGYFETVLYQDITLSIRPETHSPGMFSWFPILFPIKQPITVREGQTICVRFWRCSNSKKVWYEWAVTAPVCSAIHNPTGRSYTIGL
Chain of Full-length (FL)-PRMT5-MEP50 enzyme complex (Q9BQA1 whole entry partner): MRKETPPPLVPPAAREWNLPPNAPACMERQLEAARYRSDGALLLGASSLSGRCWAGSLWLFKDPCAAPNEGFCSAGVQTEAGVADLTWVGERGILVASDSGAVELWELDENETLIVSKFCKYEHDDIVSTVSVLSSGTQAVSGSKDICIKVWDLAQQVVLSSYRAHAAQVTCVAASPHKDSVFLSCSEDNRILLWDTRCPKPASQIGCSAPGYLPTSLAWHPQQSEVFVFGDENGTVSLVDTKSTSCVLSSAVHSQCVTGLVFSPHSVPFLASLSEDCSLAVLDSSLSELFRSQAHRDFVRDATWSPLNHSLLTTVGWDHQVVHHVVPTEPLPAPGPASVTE
Chain of Full-length PRMT5 enzyme co-expressed with His6-MEP50 (O14744 whole entry): as the sequence (O14744 whole entry) above
Chain of Full-length PRMT5 enzyme co-expressed with His6-MEP50 (Q9BQA1 whole entry partner): as the sequence (Q9BQA1 whole entry partner) above

`CCOc1cc(C(=O)N2C3CCC2COC3)ccc1C(=O)NC[C@@H](O)[C@@H]1Cc2ccccc2CN1C` [Example 3, 4-(3-Oxa-8-azabicyclo[3.2.1]octane-8-carbonyl)-2-ethoxy-N—((R)-2-hydroxy-2-((S)-2-methyl-1,2,3,4-tetrahydroisoquinolin-3-yl)ethyl)benzamide 2,2,2-trifluoroacetate]: the half-maximal effective concentration (EC50) in assay [1] is 5440 nM; in assay [4] (setting [5]), 47 nM; in assay [4] (setting [6]), 574 nM. Moreover, the figures for the 50% inhibitory concentration (IC50) in assay [2] and in assay [3] were 1010 nM and 7.12 nM, respectively.

Turning to `COc1ccc2c(c1)CN[C@H]([C@H](O)CNC(=O)c1ccc(C(=O)N3C4CCC3COC4)cc1)C2` [Example 2, 4-(3-Oxa-8-azabicyclo[3.2.1]octane-8-carbonyl)-N—((R)-2-hydroxy-2-((S)-7-methoxy-1,2,3,4-tetrahydroisoquinolin-3-yl)ethyl)benzamide], the 50% effective concentration (EC50) in assay [1] was found to be 17 nM; in assay [4] (setting [5]), 0.62 nM; in assay [4] (setting [6]), 126 nM. Moreover, the IC50 in assay [2] stood at 18 nM; in assay [3], 0.4 nM.

Consider `CCOc1cc(C(=O)N2C3CCC2COC3)ccc1C(=O)NC[C@@H](O)[C@@H]1Cc2ccc(OC)cc2CN1` [Example 1, 4-(3-Oxa-8-azabicyclo[3.2.1]octane-8-carbonyl)-2-ethoxy-N—((R)-2-hydroxy-2-((S)-7-methoxy-1,2,3,4-tetrahydroisoquinolin-3-yl)ethyl)benzamide], for which the EC50 in assay [1] was found to be 19 nM; in assay [4] (setting [5]), 0.27 nM; in assay [4] (Enzyme Methylation Assay (EC50—2, nM), second EC50 of biphasic fit), 5 nM. For the same molecule, the half-inhibitory concentration (IC50) in assay [2] turned out to be 15 nM; in assay [3] it was 0.19 nM.

The values above are taken from patent US10421743B2, “Tetrahydroisoquinolines as PRMT5 inhibitors” (CTXT PTY LTD, priority 2016, dated 2019).
